Here are results for 1 compound from US6017957A (priority 1989, dated 2000).

Data set [1] has as its system maximal electroshock seizures. The data set can be described thus: Maximal electroshock seizures (MES). In kind it is in vivo, male NIH-Swiss mice. As to the method:
(§1) Male (25-30 g) NIH-Swiss mice (Harlan Sprague-Dawley, Frederick, Md.) were group housed in 32 cm×25 cm×15 cm plastic cages (10-15/cage) with food and water freely available. Mice were injected intraperitoneally with the test substance and challenged fifteen minutes later (unless otherwise specified) with NMDA (125 mg/kg), pentylenetetrazole (PTZ) (80mg/kg), strychnine (strych.) hemisulfate (2 mg/kg, as the base), bicuculline (bicuc.) (6 mg/kg) or maximal electroshock (MES). NMDA, PTZ, and strych. hemisulfate were dissolved in distilled water. Bicuculline was dissolved in 0.01 N HC1. These compounds were injected in a volume of 0.1 ml 1-aminocyclopropanecarboxylates were dissolved in distilled water and doses ≤500 mg/kg injected in a volume of 0.1 ml; doses >500 mg/kg were injected in proportionately larger volumes. Immediately after convulsant challenge, mice were placed in 28.5 cm×17.8 cm×12 cm plastic cages (1/cage) and observed for 15 minutes. The presence or absence of convulsions and the time to the first convulsive episode (latency) were noted. MES were produced by applying a 50 mA current through alligator clips attached to the pinnae for 0.2 s.

Data set [2] deals with strychnine-induced convulsions. Particulars: MK-801; Clineschmidt et al, 1982a; cited from earlier work.
Data set [3] deals with bicuculline-induced convulsions. To be noted: MK-801; Clineschmidt et al, 1982a; cited from earlier work.
The test system of data set [4] is [^3 H]glycine binding (NMDA receptor complex). Particulars: MK-801 10 μM; Marvizon and Skolnick, 1988; cited from earlier work.
The next data set in a line: Overt behavioral effects. Particulars: MK-801 1 mg/kg, thirty minutes after administration.
The test system of data set [5] is motor performance (rotarod). The data set can be described thus: Motor performance, rotarod. In kind it is in vivo, NIH-Swiss mice. An excerpt: (§2) Evaluation of motor performance:
In general terms: The rotarod test checks motor coordination on a turning rod.

Data set [6] has as its system motor performance (horizontal wire). The data set can be described thus: Motor performance, horizontal (hanging) wire test. It counts as in vivo, NIH-Swiss mice.
Text: as §2

In the next data set the test system is NMDA-induced convulsions. Kind of data set: NMDA-induced convulsions and death (anticonvulsant activity). It counts as in vivo, male NIH-Swiss mice. As to the method:
as §1

Data set [7] deals with pentylenetetrazole (PTZ)-induced convulsions. To be noted: MK-801; Clineschmidt et al, 1982a; cited from earlier work.
The target of data set [8] is T1, strychnine-insensitive glycine receptors (NMDA receptor complex) (Rattus norvegicus, UniProt P35439).
T1 construct: Synaptic membranes were prepared from forebrains of adult; from tissue; host or cells: forebrain (whole brain minus cerebellum and brainstem) synaptic membranes of adult male Sprague-Dawley rats
Particulars: MK-801; Marvizon and Skolnick, 1988; cited from earlier work.

[9] abbreviates: ACPC 100-2000, ACPCM 19-571 mg/kg, MK-801 1 mg/kg, thirty minutes.
Where [10] appears, read: i.p., ACPC 400-2000, ACPCM 114-571, MK-801 1 mg/kg.

As to `C[C@]12N[C@H](Cc3ccccc31)c1ccccc12` [MK-801, (+)-5-Methyl-10,11-dihydro-5H-dibenzo [a,d]cyclo-hepten-5,10-imine, reference compound], the “Effect on convulsions induced by MES” value in data set [1] (MK-801 1 mg/kg i.p., superscripts 1,3) was “+”. In addition, in [1] (MK-801 1 mg/kg, thirty minutes before MES), the “abolished hindclimb tonic extensor component of MES, % of mice” value turned out to be 87%. In data set [2], the “Effect on convulsions induced by STRYCH. (2)” value was “-”. The “Effect on convulsions induced by BICUC. (6)” value in [3] is “+”. The “inhibition of activation of [^3 H]glycine binding by Mg^+2” value in data set [4] is recorded as “non-competitively inhibits”. In the data set “Overt behavioral effects”, the hyperactivity result is “profound hyperactivity”. The “impairment of performance in rotarod test” value in data set [5] (setting [9]) is “complete impairment”. The “% Impairment, Rotarod” value in data set [5] (setting [10]) was 100%. The “impairment of performance in hanging (horizontal) wire test” value in data set [6] (setting [9]) is given as “complete impairment”. For the same compound, in [6] (setting [10]), the “% Impairment, Hanging Wire” value was 100%. Further, the “Effect on convulsions induced by NMDA (125)” value in the data set with NMDA-induced convulsions (MK-801 1 mg/kg i.p., positive control, superscript 3) is “+”. Further, the “protection against NMDA-induced lethality” value with NMDA-induced convulsions (MK-801 1 mg/kg, thirty minutes following administration) is “complete protection”. Also, the “Effect on convulsions induced by PTZ (80)” value in data set [7] was “+”. The “Inhibition of [^3 H] glycine binding, mode” value in data set [8] is given as “noncom-”.
